Measured values reported in US20250032625A1, “HETEROBIFUNCTIONAL MOLECULES AS TEAD INHIBITORS” (Merck Patent GmbH, priority 2021, published 2025).
Read-outs that look alike come from different tables or passages of the source.

Legend:
TEAD1 in SK-HEP1 cells = TEAD1 in SK-HEP1 cells (Homo sapiens (Human), UniProt P28347); test: TEAD degradation in SK-HEP1 cell line (immunofluorescence); assay type: cell-based
Experimental: (§1) Degradation of TEAD isoform TEAD1 by exemplary compounds which has been determined at different time points in two different cell lines, SK-HEP1 and NCI-H226: For the assay, SK-HEP1 (ATCC HTB-52) and NCI-H226 (ATCC CRL-5826) cells were treated in duplicates with the test compounds in a 10-point dose, 1:3 dilution steps, with the top concentration starting at 30 uM (final concentration in assay). After either 16 or 24 hour incubation at 37° C., 95% rH, and 5% CO2, the cells were fixed with 4% PFA and TEAD1 levels were probed using immunofluorescence. The primary antibody used was Anti-TEF1 (BD, 610293) and the secondary antibody used was Alexa Fluor® 488 Goat Anti-Mouse IgG (H+L) (Molecular Probes, A-11001). Finally, the cell nuclei were co-stained by Hoechst 33258 (Invitrogen, H-3569) and imaged using a high content imager. The amount of TEAD degradation was determined by quantifying the fluorescence intensity levels of Anti-TEF1 in each individual cell per well. DC50 was calculated using curve fitting software Genedata Screener. Cell media: The SK-HEP1 cells were cultured in the following media: MEM, +10% FCS, +1× GlutaMAX, +100 μM NEAA, +10 mM HEPES, +0.5% Pen/Strep. The NCI-H226 cells were cultured in the following media: RPMI 1640, +10% FBS, +1× GlutaMAX, +10 mM HEPES, +0.5% Pen/Strep.

TEAD1 in NCI-H226 cells = TEAD1 in NCI-H226 cells (Homo sapiens (Human), UniProt P28347); test: TEAD degradation in NCI-H226 cell line (immunofluorescence); assay type: cell-based
Chain of TEAD1 in NCI-H226 cells (P28347 whole entry): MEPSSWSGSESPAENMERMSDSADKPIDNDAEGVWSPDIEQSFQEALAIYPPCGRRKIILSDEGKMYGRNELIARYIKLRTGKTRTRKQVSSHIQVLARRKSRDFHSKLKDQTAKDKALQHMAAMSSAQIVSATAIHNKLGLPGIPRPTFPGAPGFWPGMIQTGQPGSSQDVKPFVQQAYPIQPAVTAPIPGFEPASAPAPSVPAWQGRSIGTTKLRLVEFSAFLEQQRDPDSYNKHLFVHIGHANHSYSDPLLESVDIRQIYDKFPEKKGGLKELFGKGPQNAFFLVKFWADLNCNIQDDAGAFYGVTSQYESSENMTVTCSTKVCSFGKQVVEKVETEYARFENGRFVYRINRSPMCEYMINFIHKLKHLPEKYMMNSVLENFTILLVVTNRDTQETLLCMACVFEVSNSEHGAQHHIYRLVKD
Experimental: as §1

[1] = 24 hours, ranges, read-out: DC50 SK-HEP1
[2] = 24 hours, ranges, read-out: DC50 NCI-H226
[3] = 24 h incubation, read-out: DC50 SK-HEP1 24 h
[4] = 24 h incubation, read-out: DC50 NCI-H226 24 h
[5] = 16 h incubation, read-out: DC50 SK-HEP1 16 h
[6] = 16 h incubation, read-out: DC50 NCI-H226 16 h

Chain of TEAD1 in SK-HEP1 cells (P28347 whole entry, canonical isoform): as the sequence (P28347 whole entry) above

Row | DC50 (TEAD1 in SK-HEP1 cells; [1]) [µM] | DC50 (TEAD1 in NCI-H226 cells; [2]) [µM] | DC50 (TEAD1 in SK-HEP1 cells; [3]) [µM] | DC50 (TEAD1 in NCI-H226 cells; [4]) [µM] | DC50 (TEAD1 in SK-HEP1 cells; [5]) [µM] | DC50 (TEAD1 in NCI-H226 cells; [6]) [µM] | SMILES
1 | 0.1 to 1 | 0.1 to 1 | 0.19 | 0.3 | – | – | Cc1ncsc1-c1ccc(CNC(=O)[C@@H]2C[C@@H](O)CN2C(=O)[C@@H](NC(=O)CCCCCCCCCNC(=O)c2ccc3c(c2)c2cn(C)nc2n3-c2ccc(C(F)(F)F)cc2)C(C)(C)C)cc1 [Compound 20, (2S,4R)-1-[(2S)-3,3-dimethyl-2-[10-({2-methyl-8-[4-(trifluoromethyl)phenyl]-2H,8H-pyrazolo[3,4-b]indol-5-yl}formamido)decanamido]butanoyl]-4-hydroxy-N-{[4-(4-methyl-1,3-thiazol-5-yl)phenyl]methyl}pyrrolidine-2-carboxamide]
2 | 0.1 to 1 | 0.1 to 1 | 0.7 | 1 | 0.7 | 1 | Cc1ncsc1-c1ccc([C@H](C)NC(=O)[C@@H]2C[C@@H](O)CN2C(=O)[C@@H](NC(=O)CCCCCC(=O)NCCOCCOCCNC(=O)c2ccc3c(c2)c2cn(C)nc2n3-c2ccc(C(F)(F)F)cc2)C(C)(C)C)cc1 [Compound 24, N′-[(2S)-1-[(2S,4R)-4-hydroxy-2-{[(1S)-1-[4-(4-methyl-1,3-thiazol-5-yl)phenyl]ethyl]carbamoyl}pyrrolidin-1-yl]-3,3-dimethyl-1-oxobutan-2-yl]-N-(2-{2-[2-({2-methyl-8-[4-(trifluoromethyl)phenyl]-2H,8H-pyrazolo[3,4-b]indol-5-yl}formamido)ethoxy]ethoxy}ethyl) heptanediamide]
3 | 0.1 to 1 | 1 to 3 | 1 | 1 | 1 | 1 | CC(=O)O[C@@H]1C[C@@H](C(=O)N[C@@H](C)c2ccc(-c3scnc3C)cc2)N(C(=O)[C@@H](NC(=O)CCCCCC(=O)NCCOCCOCCNC(=O)c2ccc3c(c2)c2cn(C)nc2n3-c2ccc(C(F)(F)F)cc2)C(C)(C)C)C1 [Compound 25, (3R,5S)-1-[(2S)-3,3-dimethyl-2-{6-[(2-{2-[2-({2-methyl-8-[4-(trifluoromethyl)phenyl]-2H,8H-pyrazolo[3,4-b]indol-5-yl}formamido)ethoxy]ethoxy}ethyl)carbamoyl]hexanamido}butanoyl]-5-{[(1S)-1-[4-(4-methyl-1,3-thiazol-5-yl)phenyl]ethyl]carbamoyl}pyrrolidin-3-yl acetate]
4 | < 0.1 | < 0.1 | 0.07 | 0.09 | – | – | Cn1cc2c3cc(C(=O)NCCOCCOCCOCCOCCNc4cccc5c4C(=O)N(C4CCC(=O)NC4=O)C5=O)ccc3n(-c3ccc(C(F)(F)F)cc3)c2n1 (centres unmarked) [Compound 28, N-(14-{[2-(2,6-dioxopiperidin-3-yl)-1,3-dioxo-2,3-dihydro-1H-isoindol-4-yl]amino}-3,6,9,12-tetraoxatetradecan-1-yl)-2-methyl-8-[4-(trifluoromethyl)phenyl]-2H,8H-pyrazolo[3,4-b]indole-5-carboxamide]
5 | 3 to 9 | 9 to 30 | 3.5 | 10 | – | – | Cn1cc2c3cc(C(=O)NCCOCCOCCOCCOCCNC(=O)COc4ccc5c(c4)CCCN5C(=O)CCl)ccc3n(-c3ccc(C(F)(F)F)cc3)c2n1 [Compound 31, 2-{[1-(2-chloroacetyl)-1,2,3,4-tetrahydroquinolin-6-yl]oxy}-N-[14-({2-methyl-8-[4-(trifluoromethyl)phenyl]-2H,8H-pyrazolo[3,4-b]indol-5-yl}formamido)-3,6,9,12-tetraoxatetradecan-1-yl]acetamide]
6 | 1 to 3 | 1 to 3 | 1.1 | – | – | – | Cc1ncsc1-c1ccc(CNC(=O)[C@@H]2C[C@@H](O)CN2C(=O)[C@@H](NC(=O)COCCOCCOCCOCCOCCOCCNC(=O)c2ccc3c(c2)c2cn(C)nc2n3-c2ccc(C(F)(F)F)cc2)C(C)(C)C)cc1 [Compound 32, (2S,4R)-1-[(2S)-3,3-dimethyl-2-[20-({2-methyl-8-[4-(trifluoromethyl)phenyl]-2H,8H-pyrazolo[3,4-b]indol-5-yl}formamido)-3,6,9,12,15,18-hexaoxaicosanamido]butanoyl]-4-hydroxy-N-{[4-(4-methyl-1,3-thiazol-5-yl)phenyl]methyl}pyrrolidine-2-carboxamide]
7 | 0.1 to 1 | – | – | – | – | – | Cc1ncsc1-c1ccc(CNC(=O)[C@@H]2C[C@@H](O)CN2C(=O)[C@@H](NC(=O)CCCCCCOCCNC(=O)c2ccc3c(c2)c2cn(C)nc2n3-c2ccc(C(F)(F)F)cc2)C(C)(C)C)cc1 [Compound 77, (2S,4R)-1-[(2S)-3,3-dimethyl-2-{7-[2-({2-methyl-8-[4-(trifluoromethyl)-phenyl]-2H,8H-pyrazolo[3,4-b]indol-5-yl}formamido)ethoxy]heptanamido}-butanoyl]-4-hydroxy-N-{[4-(4-methyl-1,3-thiazol-5-yl)phenyl]methyl}-pyrrolidine-2-carboxamide]

The next lines start with the molecule.

Row | SMILES | DC50 (TEAD1 in SK-HEP1 cells; [1]) [µM] | DC50 (TEAD1 in NCI-H226 cells; [2]) [µM] | DC50 (TEAD1 in SK-HEP1 cells; [3]) [µM] | DC50 (TEAD1 in NCI-H226 cells; [4]) [µM] | DC50 (TEAD1 in SK-HEP1 cells; [5]) [µM] | DC50 (TEAD1 in NCI-H226 cells; [6]) [µM]
8 | Cc1ncsc1-c1ccc(CNC(=O)C2CC(O)CN2C(=O)C(NC(=O)COCCOCCOCCOCCNC(=O)c2ccc3c(c2)c2cn(C)nc2n3-c2ccc(C(F)(F)F)cc2)C(C)(C)C)cc1 (stereo in doubt) [Compound 12, (2S,4R)-1-{(2S)-3,3-dimethyl-2-[14-({2-methyl-8-[4-(trifluoromethyl)phenyl]-2H,8H-pyrazolo[3,4-b]indol-5-yl}formamido)-3,6,9,12-tetraoxatetradecanamido]butanoyl}-4-hydroxy-N-{[4-(4-methyl-1,3-thiazol-5-yl)phenyl]methyl}pyrrolidine-2-carboxamide] | 0.1 to 1 | 3 to 9 | – | – | – | –
9 | CCNC(=O)[C@H](Cc1ccc(F)cc1)NC(=O)[C@@H]1CCCN1C(=O)[C@@H](NC(=O)[C@H](C)NCCOCCOCCOCCNC(=O)c1ccc2c(c1)c1cn(C)nc1n2-c1ccc(C(F)(F)F)cc1)C1CCCCC1 (stereo in doubt) [Compound 69, (13S)—N-[(1S)-1-cyclohexyl-2-[(2S)-2-{[(1S)-1-(ethylcarbamoyl)-2-(4-fluorophenyl)ethyl]carbamoyl}pyrrolidin-1-yl]-2-oxoethyl]-13-methyl-1-({2-methyl-8-[4-(trifluoromethyl)phenyl]-2H,8H-pyrazolo[3,4-b]indol-5-yl}form-amido)-3,6,9-trioxa-12-azatetradecan-14-amide] | 3 to 9 | 9 to 30 | – | – | – | –
10 | Cn1cc2c3cc(C(=O)NCCOCCOCCNC(=O)COc4ccc5c(c4)C(=O)N(C4CCC(=O)NC4=O)C5=O)ccc3n(-c3ccc(C(F)(F)F)cc3)c2n1 (centres unmarked) [Compound 7, 2-{[2-(2,6-dioxopiperidin-3-yl)-1,3-dioxo-2,3-dihydro-1H-isoindol-5-yl]oxy}-N-(2-{2-[2-({2-methyl-8-[4-(trifluoromethyl)phenyl]-2H,8H-pyrazolo[3,4-b]indol-5-yl}formamido)ethoxy]ethoxy}ethyl)acetamide] | 1 to 3 | 9 to 30 | 2.4 | 20 | – | –
11 | Cn1cc2c3cc(C(=O)NCCOCCOCCOCCOCCOCC(=O)Nc4cccc5c4C(=O)N(C4CCC(=O)NC4=O)C5=O)ccc3n(-c3ccc(C(F)(F)F)cc3)c2n1 (centres unmarked) [Compound 10, N-[2-(2,6-dioxopiperidin-3-yl)-1,3-dioxo-2,3-dihydro-1H-isoindol-4-yl]-17-({2-methyl-8-[4-(trifluoromethyl)phenyl]-2H,8H-pyrazolo[3,4-b]indol-5-yl}formamido)-3,6,9,12,15-pentaoxaheptadecanamide] | – | 1 to 3 | – | 20 | – | –
12 | Cn1cc2c3cc(C(=O)NCCOCCOCCNC(=O)CCCCCCNc4cccc5c4CN(C4CCC(=O)NC4=O)C5=O)ccc3n(-c3ccc(C(F)(F)F)cc3)c2n1 (centres unmarked) [Compound 15, 7-{[2-(2,6-dioxopiperidin-3-yl)-1-oxo-2,3-dihydro-1H-isoindol-4-yl]amino}-N-(2-{2-[2-({2-methyl-8-[4-(trifluoromethyl)phenyl]-2H,8H-pyrazolo[3,4-b]indol-5-yl}formamido)ethoxy]ethoxy}ethyl) heptanamide] | – | 1 to 3 | – | – | – | –
13 | Cn1cc2c3cc(C(=O)NCCOCCOCCOCCOCCOc4cccc5c4C(=O)N(C4CCC(=O)NC4=O)C5=O)ccc3n(-c3ccc(C(F)(F)F)cc3)c2n1 (centres unmarked) [Compound 16, N-(14-{[2-(2,6-dioxopiperidin-3-yl)-1,3-dioxo-2,3-dihydro-1H-isoindol-4-yl]oxy}-3,6,9,12-tetraoxatetradecan-1-yl)-2-methyl-8-[4-(trifluoromethyl)phenyl]-2H,8H-pyrazolo[3,4-b]indole-5-carboxamide] | 0.1 to 1 | 0.1 to 1 | 0.25 | 0.6 | – | –
14 | Cn1cc2c3cc(C(=O)NCC#Cc4ccc(N5CCN(CCCC(=O)Nc6ccc7c(c6)CN(C6CCC(=O)NC6=O)C7=O)CC5)nc4)ccc3n(-c3ccc(C(F)(F)F)cc3)c2n1 (centres unmarked) [Compound 19, N-(3-{6-[4-(3-{[2-(2,6-dioxopiperidin-3-yl)-1-oxo-2,3-dihydro-1H-isoindol-5-yl]carbamoyl}propyl)piperazin-1-yl]pyridin-3-yl}prop-2-yn-1-yl)-2-methyl-8-[4-(trifluoromethyl)phenyl]-2H,8H-pyrazolo[3,4-b]indole-5-carboxamide] | < 0.1 | < 0.1 | 0.04 | 0.07 | – | –
